Values quoted from earlier work, collected in paper PMC10593844, “Structure-function analyses reveal key molecular determinants of HIV-1 CRF01_AE resistance to the entry inhibitor temsavir” (Nature Communications, 2023).
pIC50: −log10 of the molar value.

What was measured:
[1] = test system: laboratory-adapted NL4-3 HIV-1 strain; parameters: method as in PMID 30604750; conditions: cited from earlier work
[2] = test system: CRF01_AE strains; parameters: method as in PMID 30604750; conditions: range over CRF01_AE strains; cited from earlier work

Row | Structure (SMILES) | fold greater inhibition than temsavir [1] | pIC50 [2]
1 | COc1cnc(-c2csc(CN(C)CCCN(C)C)n2)c2[nH]cc(C(=O)C(=O)N3CCC(=C(C#N)c4ccccc4)CC3)c12 [BMS-814508] | 4 fold | –
2 | COc1cnc(-c2csc(C(=O)NCCO)n2)c2[nH]cc(C(=O)C(=O)N3CCC(=C(C#N)c4ccccc4)CC3)c12 [BMS-818251] | ~ 100 fold | 6.13 to 7.49
